Laboratory results reported in patent US20240218022A1, “ANTI-VISTA MACROCYCLIC PEPTIDES AND COMPOSITIONS” (BRISTOL-MYERS SQUIBB COMPANY, priority 2022, published 2024).
Read-outs that look alike come from different tables or passages of the source. Starred links: 1 amine or outer side, 2 acyl side, 3 side chain; linkers in the order of their positions; H or OH if unused. Positions of bridges follow the written chain, without caps; N, C: chain ends. Non-standard residues stand in square brackets, D forms with d. Residues, ends and D or L forms follow the SMILES beside them. Phe(3-Me) = Cc1cccc(C[C@H](N)C(=O)O)c1; γGlu = O=C(O)[C@H](CCC(=O)[*:2])N[*:1]; 2Nal = N[C@@H](Cc1ccc2ccccc2c1)C(=O)O; βAsp = O=C(O)[C@H](CC(=O)[*:2])N[*:1]; NMeD = CN[C@@H](CC(=O)O)C(=O)O; NMeL = CN[C@@H](CC(C)C)C(=O)O; Ahp(2) = CCCCC[C@H](N)C(=O)O; NMeNle = CCCC[C@H](NC)C(=O)O; Tle = CC(C)(C)[C@H](N)C(=O)O; NHexGly = CCCCCCNCC(=O)O; NMeA = CN[C@@H](C)C(=O)O; Nle = CCCC[C@H](N)C(=O)O; Orn = NCCC[C@H](N)C(=O)O; Aun = NCCCCCCCCCCC(=O)O; AEEA = NCCOCCOCC(=O)O

Biological target: T1, mouse VISTA (mVISTA) (Mus musculus, UniProt Q9D659)
T1 construct: expressed in transfected cells; host or cells: Human embryonic kidney 293T cells
T1 sequence (Q9D659 33-308): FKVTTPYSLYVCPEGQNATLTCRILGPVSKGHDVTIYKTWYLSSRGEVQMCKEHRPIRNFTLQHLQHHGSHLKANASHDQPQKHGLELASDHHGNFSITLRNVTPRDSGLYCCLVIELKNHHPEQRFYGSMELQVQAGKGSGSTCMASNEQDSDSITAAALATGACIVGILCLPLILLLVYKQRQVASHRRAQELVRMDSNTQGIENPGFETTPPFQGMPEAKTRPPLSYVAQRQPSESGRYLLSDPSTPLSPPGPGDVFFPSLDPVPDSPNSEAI
Experiment: Cell-Based Binding High-Content Assay For mVISTA (HC CBA mVISTA)
Summary of the method: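 293T cells expressing mouse VISTA, with compounds added either after seeding ("no wash") or before seeding and then washed out after 1 h. Biotinylated peptide 2 nM for 30 min at room temperature, then detection with Alexa 647–streptavidin. After fixation with Hoechst stain, plates were high-content imaged; IC50 from four-parameter logistic fit.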

[1] = cell-based binding high-content assay, mVISTA, the 16th table, read-out: HC CBA mVISTA IC50
[2] = 293T cells expressing mouse VISTA, competition with biotinylated peptide (2 nM), read-out: HC CBA mVISTA IC50

CCCCCCN1CC(=O)N[C@@H](Cc2ccc(O)cc2)C(=O)N[C@@H](CCCC)C(=O)N[C@@H](CC(N)=O)C(=O)N[C@@H](CCCNC(N)=O)C(=O)N2Cc3ccccc3C[C@H]2C(=O)N[C@@H](CCCCC)C(=O)N2CCC[C@H]2C(=O)N[C@@H](C(C)C)C(=O)N[C@@H](CO)C(=O)N[C@H](C(=O)NCCOCCOCC(=O)N[C@@H](CC(=O)O)C(=O)NCCOCCOCC(=O)NCCCCCCCCCCC(=O)O)CSCC(=O)N[C@@H](Cc2ccccc2)C(=O)N[C@@H](Cc2c[nH]c3ccccc23)C(=O)N[C@@H](CC(=O)O)C1=O (stereo in doubt) [compound 2311]
IC50 (cell-based binding high-content assay, read-out: HC CBA miPrISTA IC50): 0.0284 µM

CCCCCCN1CC(=O)N[C@@H](Cc2ccc(O)cc2)C(=O)N[C@@H](CCCC)C(=O)N[C@@H](CC(N)=O)C(=O)N[C@@H](CCCNC(=N)N)C(=O)N(C)[C@@H](CCCC)C(=O)N[C@@H](CCCCC)C(=O)N2CCC[C@H]2C(=O)N[C@@H](C(C)(C)C)C(=O)N[C@@H](CC(=O)O)C(=O)N[C@H](C(=O)N[C@@H](CO)C(=O)NCCOCCOCC(=O)NCCCCCCCCCCC(=O)O)CSCC(=O)N[C@@H](Cc2ccccc2)C(=O)N[C@@H](Cc2c[nH]c3ccccc23)C(=O)N[C@@H](CC(=O)O)C1=O [Example 2337] ({CH2CO}-FWD[NHexGly]Y[Nle]NR[NMeNle][Ahp(2)]P[Tle]DCS[AEEA][Aun]-OH; thioether N-14)
IC50 (cell-based binding high-content assay, read-out: HC CBA mVISTA IC50): 0.0217 µM

CCCCCCN1CC(=O)N[C@@H](Cc2ccc(O)cc2)C(=O)N[C@@H](C(C)C)C(=O)NCC(=O)N[C@@H](CCCNC(=N)N)C(=O)N[C@@H](CC(C)C)C(=O)N[C@@H](CCCCC)C(=O)N2CCC[C@H]2C(=O)N[C@@H](C(C)C)C(=O)N[C@@H](CC(=O)O)C(=O)N[C@H](C(=O)N[C@@H](CC(N)=O)C(N)=O)CSCC(=O)N[C@@H](Cc2ccc3ccccc3c2)C(=O)N[C@@H](Cc2ccc(O)cc2)C(=O)N[C@@H](CC(=O)O)C1=O [Ex 1310] ({CH2CO}-[2Nal]YD[NHexGly]YVGRL[Ahp(2)]PVDCN-NH2; thioether N-14)
IC50 [1]: 0.0034 µM

CCCCCCN1CC(=O)N[C@@H](Cc2ccc(O)cc2)C(=O)N[C@@H](CC(C)C)C(=O)N[C@@H](CC(N)=O)C(=O)N[C@@H](CCCNC(=N)N)C(=O)N[C@@H](CC(C)C)C(=O)N[C@@H](CCCCC)C(=O)N2CCC[C@H]2C(=O)N[C@@H](C(C)C)C(=O)N[C@@H](C(C)C)C(=O)N[C@H](C(=O)NCC(=O)O)CSCC(=O)N[C@@H](Cc2ccccc2)C(=O)N[C@@H](Cc2ccc(O)cc2)C(=O)N[C@@H](CC(=O)O)C1=O [Example 1066] ({CH2CO}-FYD[NHexGly]YLNRL[Ahp(2)]PVVCG-OH; thioether N-14)
IC50 [2]: 0.0024 µM

CCCCCCN1CC(=O)N[C@@H](Cc2ccc(O)cc2)C(=O)N[C@@H](CC(C)C)C(=O)N[C@@H](CC(N)=O)C(=O)N[C@@H](CCCN)C(=O)N(C)[C@@H](CCCC)C(=O)N[C@@H](CCCCC)C(=O)N2CCC[C@H]2C(=O)N[C@@H](C(C)(C)C)C(=O)N[C@@H](CO)C(=O)N[C@H](C(=O)N[C@@H](CCC(=O)NCCCCCCCCCCC(=O)O)C(=O)O)CSCC(=O)N[C@@H](Cc2ccccc2)C(=O)N[C@@H](Cc2ccc(O)cc2)C(=O)N[C@@H](CC(=O)O)C1=O [Example 2132] ({CH2CO}-FYD[NHexGly]YLN[Orn][NMeNle][Ahp(2)]P[Tle]SC[γGlu][Aun]-OH; thioether N-14)
IC50 (read-out: HC CBA mVISTA IC50): 0.0235 µM

CCCCCCN1CC(=O)N[C@@H](Cc2ccc(O)cc2)C(=O)N[C@@H](CCCC)C(=O)NCC(=O)N[C@@H](CCCNC(=N)N)C(=O)N[C@@H](CC(C)C)C(=O)N[C@@H](CCCCC)C(=O)N2CCC[C@H]2C(=O)N[C@@H](C(C)C)C(=O)N2CCC[C@H]2C(=O)N[C@H](C(=O)NCC(=O)O)CSCC(=O)N[C@@H](Cc2ccccc2)C(=O)N[C@@H](Cc2ccc(O)cc2)C(=O)N[C@@H](CC(=O)O)C1=O [Example 1099] ({CH2CO}-FYD[NHexGly]Y[Nle]GRL[Ahp(2)]PVPCG-OH; thioether N-14)
IC50 [2]: 0.0216 µM

CCCCCCN1CC(=O)N[C@@H](Cc2ccc(O)cc2)C(=O)N[C@@H](CCCC)C(=O)N[C@@H](CC(N)=O)C(=O)N[C@@H](CCCNC(=N)N)C(=O)N(C)[C@@H](CCCC)C(=O)N[C@@H](CCCCC)C(=O)N(C)[C@@H](C)C(=O)N[C@@H](C(C)C)C(=O)N[C@@H](CO)C(=O)N[C@H](C(=O)N[C@@H](CC(=O)NCCOCCOCC(=O)NCCCCCCCCCCC(=O)O)C(=O)O)CSCC(=O)N[C@@H](Cc2ccccc2)C(=O)N[C@@H](Cc2c[nH]c3ccccc23)C(=O)N[C@@H](CC(=O)O)C1=O [Example 2172] ({CH2CO}-FWD[NHexGly]Y[Nle]NR[NMeNle][Ahp(2)][NMeA]VSC[βAsp][AEEA][Aun]-OH; thioether N-14)
IC50 (read-out: HC CBA mVISTA IC50): 0.0306 µM

CCCCCCN1CC(=O)N[C@@H](Cc2ccc(O)cc2)C(=O)N[C@@H](CCCC)C(=O)N[C@@H](CC(=O)O)C(=O)N[C@@H](CCCNC(=N)N)C(=O)N[C@@H](CC(C)C)C(=O)N[C@@H](CCCCC)C(=O)N2CCC[C@H]2C(=O)N[C@@H](C(C)C)C(=O)N[C@@H](CC(=O)O)C(=O)N[C@H](C(=O)N[C@@H](CO)C(N)=O)CSCC(=O)N[C@@H](Cc2ccc3ccccc3c2)C(=O)N[C@@H](Cc2ccc(O)cc2)C(=O)N[C@@H](CC(=O)O)C1=O [Ex 1317] ({CH2CO}-[2Nal]YD[NHexGly]Y[Nle]DRL[Ahp(2)]PVDCS-NH2; thioether N-14)
IC50 [1]: 0.0175 µM

CCCCCCN1CC(=O)N[C@@H](Cc2ccc(O)cc2)C(=O)N[C@@H](CCCC)C(=O)NCC(=O)N[C@@H](CCCNC(=N)N)C(=O)N[C@@H](CC(C)C)C(=O)N[C@@H](CCCCC)C(=O)N2CCC[C@H]2C(=O)N[C@@H](C(C)C)C(=O)N[C@@H](CC(=O)O)C(=O)N[C@H](C(=O)NCC(=O)O)CSCC(=O)N[C@@H](Cc2cccc(C)c2)C(=O)N[C@@H](Cc2ccc(O)cc2)C(=O)N[C@@H](CC(=O)O)C1=O [compound 1431] ({CH2CO}-[Phe(3-Me)]YD[NHexGly]Y[Nle]GRL[Ahp(2)]PVDCG-OH; thioether N-14)
IC50 (the 19th table, scaffold drawing 22, read-out: HC CBA mVISTA IC50): 0.0025 µM

CCCCCCN1CC(=O)N[C@@H](Cc2ccc(O)cc2)C(=O)N[C@@H](CCCC)C(=O)N[C@@H](CC(N)=O)C(=O)N[C@@H](CCCNC(=N)N)C(=O)N(C)[C@@H](CC(=O)O)C(=O)N[C@@H](CCCCC)C(=O)N2CCC[C@H]2C(=O)N[C@@H](C(C)C)C(=O)N[C@@H](CC(=O)O)C(=O)N[C@H](C(=O)NCC(=O)O)CSCC(=O)N[C@@H](Cc2ccccc2)C(=O)N[C@@H](Cc2c[nH]c3ccccc23)C(=O)N[C@@H](CC(=O)O)C1=O [Example 1368] ({CH2CO}-FWD[NHexGly]Y[Nle]NR[NMeD][Ahp(2)]PVDCG-OH; thioether N-14)
IC50 (read-out: HC CBA mVISTA IC50): 0.037 µM

CCCCCCN1CC(=O)N[C@@H](Cc2ccc(O)cc2)C(=O)N[C@@H](CC(C)C)C(=O)N[C@@H](CC(N)=O)C(=O)N[C@@H](CCCNC(=N)N)C(=O)N(C)[C@@H](CC(C)C)C(=O)N[C@@H](CCCCC)C(=O)N2CCC[C@H]2C(=O)N[C@@H](C(C)(C)C)C(=O)N[C@@H](CO)C(=O)N[C@H](C(=O)NCCOCCOCC(=O)N[C@@H](CCC(=O)NCCOCCOCC(=O)NCCCCCCCCCCC(=O)O)C(=O)O)CSCC(=O)N[C@@H](Cc2ccccc2)C(=O)N[C@@H](Cc2c[nH]c3ccccc23)C(=O)N[C@@H](CC(=O)O)C1=O [compound 2263] ({CH2CO}-FWD[NHexGly]YLNR[NMeL][Ahp(2)]P[Tle]SC[AEEA][γGlu][AEEA][Aun]-OH; thioether N-14)
IC50 (read-out: HC CBA mVISTA IC50): 0.0251 µM
